The results in this text go back to patent US20220089575A1, “FARNESOID X RECEPTOR AGONISTS AND USES THEREOF” (Metacrine, Inc., priority 2017, published 2022).

Molecules are shown by their SMILES.

For the assay, the target named is T1, hFXR (Homo sapiens, UniProt Q96RI1).
T1 construct: expressed in transfected cells; host or cells: CV-1 cells
T1 sequence (Q96RI1 1-486): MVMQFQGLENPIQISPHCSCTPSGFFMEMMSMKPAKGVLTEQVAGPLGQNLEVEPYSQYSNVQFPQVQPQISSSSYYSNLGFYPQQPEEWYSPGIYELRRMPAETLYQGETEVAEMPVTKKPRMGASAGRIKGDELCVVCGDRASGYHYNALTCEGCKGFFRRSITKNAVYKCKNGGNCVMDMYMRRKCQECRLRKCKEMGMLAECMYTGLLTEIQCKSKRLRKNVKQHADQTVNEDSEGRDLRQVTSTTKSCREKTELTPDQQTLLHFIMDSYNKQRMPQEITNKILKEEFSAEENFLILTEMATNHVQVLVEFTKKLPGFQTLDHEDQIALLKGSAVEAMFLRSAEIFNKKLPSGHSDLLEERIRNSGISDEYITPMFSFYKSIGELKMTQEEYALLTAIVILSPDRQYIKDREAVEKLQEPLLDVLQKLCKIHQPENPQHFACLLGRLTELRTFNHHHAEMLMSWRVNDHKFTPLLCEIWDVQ
T1 sequence (P19793 1-462 partner): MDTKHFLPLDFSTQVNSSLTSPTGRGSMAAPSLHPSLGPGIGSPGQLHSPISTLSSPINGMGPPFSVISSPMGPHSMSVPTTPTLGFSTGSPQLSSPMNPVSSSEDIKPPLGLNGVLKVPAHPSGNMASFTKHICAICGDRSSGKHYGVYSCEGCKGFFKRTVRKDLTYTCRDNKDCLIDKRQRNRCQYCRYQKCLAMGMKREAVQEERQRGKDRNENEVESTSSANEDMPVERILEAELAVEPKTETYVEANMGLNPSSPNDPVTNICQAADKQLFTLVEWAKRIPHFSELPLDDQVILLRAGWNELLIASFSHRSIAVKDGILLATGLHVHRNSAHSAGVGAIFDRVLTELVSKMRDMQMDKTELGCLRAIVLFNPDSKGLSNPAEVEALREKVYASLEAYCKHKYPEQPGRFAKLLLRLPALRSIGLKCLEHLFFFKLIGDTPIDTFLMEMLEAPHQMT
Kind of assay: In Vitro FXR Assay (TK): TK-ECRE-luc reporter in transfected CV-1 cells. The class given is cell-based. The following applies: 18 hrs, luminescence, maximum efficacy of <25% of the Fexarmine control classified as '+'. The essentials: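 Reporter transactivation by hFXR was measured in CV-1 cells carrying hRXR and a TK-ECRE-luc construct, with compound treatment for 18 h before lysis and luminescence detection.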

A word on the EC50: it is the concentration that produces a half-maximal response. A low value points to higher potency in that assay. As for `CCCC1CN(C(=O)O[C@H]2CC[C@H](C(=O)N(C[C@H]3CC[C@H](c4ccc(OC)c(C)n4)CC3)c3cc(-c4coc(C5CC5)n4)ccn3)CC2)C1` [Compound 7.105, trans-4-((4-(2-Cyclopropyloxazol-4-yl)pyridin-2-yl)((trans-4-(5-methoxy-6-methylpyridin-2-yl)cyclohexyl)methyl)carbamoyl)cyclohexyl 3-propylazetidine-1-carboxylate], the EC50 is no more than 0.25 µM.

Molecule `COc1ccc([C@H]2CC[C@H](CN(c3cccc(-c4cnn(C5CC5)c4)c3)C(=O)[C@H]3CC[C@H](OC(=O)NCCCCCN(C)C)CC3)CC2)cc1C` [Compound 4.21, trans-4-((3-(1-Cyclopropyl-1H-pyrazol-4-yl)phenyl)((trans-4-(4-methoxy-3-methylphenyl)cyclohexyl)methyl)carbamoyl)cyclohexyl (5-(dimethylamino)pentyl)carbamate] registered an EC50 of no more than 0.25 µM. `CNC(=O)O[C@H]1CC[C@H](C(=O)N(C[C@H]2CC[C@H](c3cnc(OC)c(C)c3)CC2)c2cccc(-c3cnn(C4CC4)c3)c2)CC1` [Compound 5.16, trans-4-((3-(1-Cyclopropyl-1H-pyrazol-4-yl)phenyl)((trans-4-(6-methoxy-5-methylpyridin-3-yl)cyclohexyl)methyl)carbamoyl)cyclohexyl methylcarbamate] had an EC50 of no more than 0.25 µM. In the case of `COc1ccc([C@H]2CC[C@H](CN(c3cccc(-c4coc(C5CC5)n4)c3)C(=O)[C@H]3CC[C@H](NC(=O)CO)CC3)CC2)cc1C` [Compound 26.16, trans-N-(3-(2-Cyclopropyloxazol-4-yl)phenyl)-4-(2-hydroxyacetamido)-N-((trans-4-(4-methoxy-3-methylphenyl)cyclohexyl)methyl) cyclohexanecarboxamide] it was no more than 0.25 µM; in that of `COc1ccc([C@H]2CC[C@H](CN(c3cccc(-c4cnc(C(C)C)s4)c3)C(=O)[C@H]3CC[C@H](OC(=O)NCCO)CC3)CC2)nc1C` [Compound 6.04, trans-4-((3-(2-Isopropylthiazol-5-yl)phenyl)((trans-4-(5-methoxy-6-methylpyridin-2-yl)cyclohexyl)methyl)carbamoyl)cyclohexyl (2-hydroxyethyl)carbamate], no more than 0.25 µM; in that of `COc1ccc([C@H]2CC[C@H](CN(c3cc(-c4coc(C(C)C)n4)ccn3)C(=O)[C@H]3CC[C@H](OC(=O)N4CC(O)C4)CC3)CC2)cc1C#N` [Compound 7.73, trans-4-(((trans-4-(3-Cyano-4-methoxyphenyl)cyclohexyl)methyl)(4-(2-isopropyloxazol-4-yl)pyridine-2-yl)carbamoyl)cyclohexyl 3-hydroxyazetidine-1-carboxylate], no more than 0.25 µM. `COc1ccc([C@H]2CC[C@H](CN(c3cc(-c4coc(C(C)C)n4)ccn3)C(=O)[C@H]3CC[C@H](OC(=O)N4CC(OC)C4)CC3)CC2)nc1C` [Compound 7.82, trans-4-((4-(2-Isopropyloxazol-4-yl)pyridine-2-yl)((trans-4-(5-methoxy-6-methylpyridin-2-yl)cyclohexyl)methyl)carbamoyl)cyclohexyl 3-methoxyazetidine-1-carboxylate]: the EC50 is no more than 0.25 µM. The figure for `COc1ccc([C@H]2CC[C@H](CN(c3cccc(-c4cnn(C5CC5)c4)c3)C(=O)[C@H]3CC[C@H](OC(=O)NCc4ncc[nH]4)CC3)CC2)cc1C` [Compound 4.13, trans-4-((3-(1-Cyclopropyl-1H-pyrazol-4-yl)phenyl)((trans-4-(4-methoxy-3-methylphenyl)cyclohexyl)methyl)carbamoyl)cyclohexyl ((1H-imidazol-2-yl)methyl)carbamate] is no more than 0.25 µM; for `COc1ncc(-c2cccc(N(C[C@H]3CC[C@H](c4ccc(OC)c(C)c4)CC3)C(=O)[C@H]3CC[C@H](CN)CC3)c2)s1` [Compound 25.03, trans-4-(Aminomethyl)-N-((trans-4-(4-methoxy-3-methylphenyl)cyclohexyl)methyl)-N-(3-(2-methoxythiazol-5-yl)phenyl)cyclohexanecarboxamide] it is no less than 1 µM. The figure for `CNC1CN(C(=O)O[C@H]2CC[C@H](C(=O)N(C[C@H]3CC[C@H](c4ccc(OC)c(C)c4)CC3)c3cccc(-c4cnn(C5CC5)c4)c3)CC2)C1` [Compound 7.37] is no more than 0.25 µM. `COc1ccc([C@H]2CC[C@H](CN(c3cccc(-c4cnn(C5CC5)c4)c3)C(=O)[C@H]3CC[C@H](C(=O)O)CC3)CC2)cc1C` [Compound 17.13, trans-4-((3-(1-Cyclopropyl-1H-pyrazol-4-yl)phenyl)((trans-4-(4-methoxy-3-methylphenyl)cyclohexyl)methyl)carbamoyl)cyclohexanecarboxylic acid] showed an EC50 of no more than 0.25 µM. The molecule `CCOC1CN(C(=O)O[C@H]2CC[C@H](C(=O)N(C[C@H]3CC[C@H](c4ccc(OC)c(C)n4)CC3)c3cc(-c4coc(C5CC5)n4)ccn3)CC2)C1` [Compound 7.87, trans-4-((4-(2-Cyclopropyloxazol-4-yl)pyridine-2-yl)((trans-4-(5-methoxy-6-methylpyridin-2-yl)cyclohexyl)methyl)carbamoyl)cyclohexyl 3-ethoxyazetidine-1-carboxylate] displayed an EC50 of no more than 0.25 µM. Take `COC(=O)N[C@H]1CC[C@H](C(=O)N(C[C@H]2CC[C@H](c3ccc(OC)c(C)c3)CC2)c2cccc(-c3cnc(OC)s3)c2)CC1` [Compound 25.05, Methyl (trans-4-(((trans-4-(4-methoxy-3-methylphenyl)cyclohexyl)methyl)(3-(2-methoxythiazol-5-yl)phenyl)carbamoyl)cyclohexyl) carbamate]: the EC50 was no more than 0.25 µM. With `COc1ccc([C@H]2CC[C@H](CN(c3cccc(-c4coc(C5CC5)n4)c3)C(=O)[C@H]3CC[C@H](OC(=O)N4CC(O)C4)CC3)CC2)nc1C#N` [Compound 7.70, trans-4-(((trans-4-(6-Cyano-5-methoxypyridin-2-yl)cyclohexyl)methyl)(3-(2-cyclopropyloxazol-4-yl)phenyl)carbamoyl)cyclohexyl 3-hydroxyazetidine-1-carboxylate], the EC50 was no more than 0.25 µM.

Consider `COc1ncc(-c2cccc(N(C[C@H]3CC[C@H](c4ccc(OC)c(C)c4)CC3)C(=O)[C@H]3CC[C@H](NC(C)=O)CC3)c2)s1` [Compound 25.04, trans-4-Acetamido-N-((trans-4-(4-methoxy-3-methylphenyl)cyclohexyl)methyl)-N-(3-(2-methoxythiazol-5-yl)phenyl)cyclohexanecarboxamide], for which the EC50 was no more than 0.25 µM.

Regarding `COC(=O)CC1CN(C(=O)O[C@H]2CC[C@H](C(=O)N(C[C@H]3CC[C@H](c4ccc(OC)c(C)c4)CC3)c3cccc(-c4cnn(C5CC5)c4)c3)CC2)C1` [Compound 7.41, trans-4-((3-(1-Cyclopropyl-1H-pyrazol-4-yl)phenyl)((trans-4-(4-methoxy-3-methylphenyl)cyclohexyl)methyl)carbamoyl)cyclohexyl 3-(2-methoxy-2-oxoethyl)azetidine-1-carboxylate], the EC50 was no more than 0.25 µM. The figure for `COc1ccc([C@H]2CC[C@H](CN(c3cccc(-c4cnn(C5CC5)c4)c3)C(=O)[C@H]3CC[C@H](C(=O)OC(C)C)CC3)CC2)cc1C` [Compound 22.01, trans-Isopropyl 4-((3-(1-cyclopropyl-1H-pyrazol-4-yl)phenyl)((trans-4-(4-methoxy-3-methylphenyl)cyclohexyl)methyl)carbamoyl) cyclohexanecarboxylate] is no more than 0.25 µM; for `COc1ncc(-c2cccc(N(C[C@H]3CC[C@H](c4ccc(OC)c(C)c4)CC3)C(=O)[C@H]3CC[C@H](CNC(C)=O)CC3)c2)s1` [Compound 25.06, trans-4-(Acetamidomethyl)-N-((trans-4-(4-methoxy-3-methylphenyl)cyclohexyl)methyl)-N-(3-(2-methoxythiazol-5-yl)phenyl)cyclohexanecarboxamide] it is no more than 0.25 µM; for `CNC(=O)O[C@H]1CC[C@H](C(=O)N(C[C@H]2CC[C@H](c3ccc(OC)c(C)c3)CC2)c2cccc(-c3coc(C4CC4)n3)c2)CC1` [Compound 2.06, trans-4-((3-(2-Cyclopropyloxazol-4-yl)phenyl)((trans-4-(4-methoxy-3-methylphenyl)cyclohexyl)methyl)carbamoyl)cyclohexyl) methylcarbamate] it is no more than 0.25 µM. `CN(C)c1ccc([C@H]2CC[C@H](CN(c3cccc(-c4coc(C5CC5)n4)c3)C(=O)[C@H]3CC[C@H](OC(=O)NCCO)CC3)CC2)cn1` [Compound 4.22, trans-4-((3-(2-Cyclopropyloxazol-4-yl)phenyl)((trans-4-(6-(dimethylamino)pyridine-3-yl)cyclohexyl)methyl)carbamoyl)cyclohexyl (2-hydroxyethyl)carbamate] showed an EC50 of no more than 0.25 µM.
